Results from ChEMBL document CHEMBL4145492, “Discovery of biphenyl-substituted diarylpyrimidines as non-nucleoside reverse transcriptase inhibitors with high potency against wild-type and mutant HIV-1” (Eur J Med Chem, 2018).

Tests used:
[1] = system: Human immunodeficiency virus 1; test: Antiviral activity against wild type HIV1 3B infected in human MT4 cells assessed as reduction of virus-induced cytopathic effect after 4 days by MTT assay; format: functional, organism-based; conditions: Human immunodeficiency virus 1, 3B, MT4, 96 h
[2] = Selectivity index, ratio of CC50 for human MT4 cells to EC50 for wild type HIV1 3B; format: toxicity; conditions: read-out: Ratio CC50/EC50
[3] = Cytotoxicity against human MT4 cells assessed as reduction in cell viability after 4 days by MTT assay; format: cell-based
[4] = system: Human immunodeficiency virus 2; test: Antiviral activity against HIV2 ROD infected in human MT4 cells assessed as reduction of virus-induced cytopathic effect after 4 days by MTT assay; format: functional, organism-based; conditions: Human immunodeficiency virus 2, ISOLATE ROD, MT4, 96 h
[5] = molecular target: Human immunodeficiency virus type 1 reverse transcriptase (Human immunodeficiency virus 1, UniProt Q72547); test: Inhibition of recombinant wild type HIV1 reverse transcriptase p66/p51 using poly (rA)/anoligo (dT)16 as template/primer assessed as inhibition of biotin-dUTP incorporation after 40 mins by Pico-Green staining based fluorescence assay
[6] = system: Human immunodeficiency virus 1; test: Antiviral activity against HIV1 harboring reverse transcriptase E138K mutant infected in human MT4 cells assessed as reduction of virus-induced cytopathic effect after 4 days by MTT assay; format: functional, organism-based; conditions: Human immunodeficiency virus 1, MT4, 96 h
[7] = system: Human immunodeficiency virus 1; test: Antiviral activity against HIV1 harboring reverse transcriptase Y181C mutant infected in human MT4 cells assessed as reduction of virus-induced cytopathic effect after 4 days by MTT assay; format: functional, organism-based; conditions: Human immunodeficiency virus 1, MT4, 96 h
[8] = system: Human immunodeficiency virus 1; test: Antiviral activity against HIV1 harboring reverse transcriptase Y188L mutant infected in human MT4 cells assessed as reduction of virus-induced cytopathic effect after 4 days by MTT assay; format: functional, organism-based; conditions: Human immunodeficiency virus 1, MT4, 96 h
[9] = system: Human immunodeficiency virus 1; test: Antiviral activity against HIV1 RES056 harboring reverse transcriptase K103 N/Y181C double mutant infected in human MT4 cells assessed as reduction of virus-induced cytopathic effect after 4 days by MTT assay; format: functional, organism-based; conditions: Human immunodeficiency virus 1, RES056, MT4, 96 h
[10] = system: Human immunodeficiency virus 1; test: Antiviral activity against HIV1 harboring reverse transcriptase L100I mutant infected in human MT4 cells assessed as reduction of virus-induced cytopathic effect after 4 days by MTT assay; format: functional, organism-based; conditions: Human immunodeficiency virus 1, MT4, 96 h
[11] = system: Human immunodeficiency virus 1; test: Antiviral activity against HIV1 harboring reverse transcriptase F227L/V106A double mutant infected in human MT4 cells assessed as reduction of virus-induced cytopathic effect after 4 days by MTT assay; format: functional, organism-based; conditions: Human immunodeficiency virus 1, MT4, 96 h
[12] = system: Human immunodeficiency virus 1; test: Antiviral activity against HIV1 harboring reverse transcriptase K103N mutant infected in human MT4 cells assessed as reduction of virus-induced cytopathic effect after 4 days by MTT assay; format: functional, organism-based; conditions: Human immunodeficiency virus 1, MT4, 96 h

| SMILES | EC50 [1] | selectivity ratio [2] | CC50 at 96 h [3] | EC50 [4] | IC50 [5] | EC50 [6] | EC50 [7] | EC50 [8] | EC50 [9] | EC50 [10] | EC50 [11] | EC50 [12] |
| --- | --- | --- | --- | --- | --- | --- | --- | --- | --- | --- | --- | --- |
| Cc1cc(-c2ccccc2C(F)(F)F)cc(C)c1Nc1ccnc(Nc2ccc(C#N)cc2)n1 | 6.9 nM | 606 | 4210 nM | > 4210 nM | 46 nM |  |  |  |  |  |  |  |
| Cc1cc(-c2cccc(F)c2)cc(C)c1Nc1ccnc(Nc2ccc(C#N)cc2)n1 | 1.7 nM | 2380 | 4120 nM | > 4120 nM | 12 nM |  |  |  |  |  |  |  |
| Cc1ccc(-c2cc(C)c(Nc3ccnc(Nc4ccc(C#N)cc4)n3)c(C)c2)cc1 | 3.6 nM | 1540 | 5570 nM | > 5570 nM | 19 nM |  |  |  |  |  |  |  |
| Cc1cc(-c2cccc(C(F)(F)F)c2)cc(C)c1Nc1ccnc(Nc2ccc(C#N)cc2)n1 | 8.4 nM | 477 | 4030 nM | > 4030 nM | 58 nM |  |  |  |  |  |  |  |
| Cc1cc(-c2ccccc2Cl)cc(C)c1Nc1ccnc(Nc2ccc(C#N)cc2)n1 | 2.6 nM | 1150 | 3990 nM | > 3990 nM | 20 nM |  |  |  |  |  |  |  |
| Cc1cc(-c2cc(F)cc(F)c2)cc(C)c1Nc1ccnc(Nc2ccc(C#N)cc2)n1 | 33 nM | 120 | 3910 nM | > 3910 nM | 52 nM |  |  |  |  |  |  |  |
| Cc1cc(C)cc(-c2cc(C)c(Nc3ccnc(Nc4ccc(C#N)cc4)n3)c(C)c2)c1 | 23 nM | 177 | 4140 nM | > 4140 nM | 116 nM |  |  |  |  |  |  |  |
| Cc1cc(-c2ccc(Cl)cc2)cc(C)c1Nc1ccnc(Nc2ccc(C#N)cc2)n1 | 3.7 nM | 1130 | 4190 nM | > 4190 nM | 26 nM |  |  |  |  |  |  |  |
| COc1ccc(-c2cc(C)c(Nc3ccnc(Nc4ccc(C#N)cc4)n3)c(C)c2)cc1 | 2.4 nM | 1200 | 2890 nM | > 2890 nM | 27 nM |  |  |  |  |  |  |  |
| O=C1Nc2ccc(Cl)cc2[C@@](C#CC2CC2)(C(F)(F)F)O1 [EFAVIRENZ] | 0.43 nM |  | > 2000 nM |  |  | 1.6 nM | 1.5 nM | 59 nM | 40 nM | 1 nM | 50 nM | 19 nM |
| Cc1ccccc1-c1cc(C)c(Nc2ccnc(Nc3ccc(C#N)cc3)n2)c(C)c1 | 2.4 nM | 1580 | 3820 nM | > 3820 nM | 18 nM |  |  |  |  |  |  |  |
| Cc1cn([C@H]2C[C@H](N=[N+]=[N-])[C@@H](CO)O2)c(=O)[nH]c1=O [ZIDOVUDINE] | 2.1 nM | > 971 | > 2000 nM |  |  | 2.2 nM | 1.7 nM | 1.6 nM | 1.5 nM | 1.3 nM | 1 nM | 1.9 nM |
| Cc1cc(C#N)cc(C)c1Oc1nc(Nc2ccc(C#N)cc2)nc(N)c1Br [ETRAVIRINE] | 1.5 nM | > 1320 | > 2000 nM |  |  | 7.3 nM | 8.1 nM | 7.9 nM | 10 nM | 2.7 nM | 7 nM | 1.5 nM |
| Cc1cccc(-c2cc(C)c(Nc3ccnc(Nc4ccc(C#N)cc4)n3)c(C)c2)c1 | 5.9 nM | 622 | 3670 nM | > 3670 nM | 30 nM |  |  |  |  |  |  |  |
| Cc1cc(-c2cc(Cl)cc(Cl)c2)cc(C)c1Nc1ccnc(Nc2ccc(C#N)cc2)n1 | 34 nM | 125 | 4290 nM | > 4290 nM | 46 nM |  |  |  |  |  |  |  |
| Cc1cc(-c2ccc(C(F)(F)F)cc2)cc(C)c1Nc1ccnc(Nc2ccc(C#N)cc2)n1 | 10 nM | 418 | 4160 nM | > 4160 nM | 67 nM |  |  |  |  |  |  |  |
| COc1cccc(-c2cc(C)c(Nc3ccnc(Nc4ccc(C#N)cc4)n3)c(C)c2)c1 | 2.9 nM | 1050 | 2990 nM | > 2990 nM | 27 nM |  |  |  |  |  |  |  |
| Cc1cc(-c2ccccc2F)cc(C)c1Nc1ccnc(Nc2ccc(C#N)cc2)n1 | 1.4 nM | 1540 | 2120 nM | > 2120 nM | 9 nM | 7.8 nM | 8 nM | 130 nM | 230 nM | 12 nM | ≥ 390 nM | 3.2 nM |
| Cc1cc(-c2c(C)cccc2C)cc(C)c1Nc1ccnc(Nc2ccc(C#N)cc2)n1 | 7.1 nM | 364 | 2590 nM | > 2590 nM | 37 nM |  |  |  |  |  |  |  |
| COc1ccccc1-c1cc(C)c(Nc2ccnc(Nc3ccc(C#N)cc3)n2)c(C)c1 | 3 nM | 316 | 940 nM | > 940 nM | 21 nM |  |  |  |  |  |  |  |
| Cc1ccnc2c1NC(=O)c1cccnc1N2C1CC1 [NEVIRAPINE] | 24 nM |  | > 4000 nM |  |  | 58 nM | > 4000 nM | > 4000 nM | > 4000 nM | 400 nM | > 4000 nM | 1850 nM |
| Cc1cc(-c2cccc(Cl)c2)cc(C)c1Nc1ccnc(Nc2ccc(C#N)cc2)n1 | 5.3 nM | 409 | 2160 nM | > 2160 nM | 20 nM |  |  |  |  |  |  |  |
| Cc1cc(-c2ccc(C#N)cc2)cc(C)c1Nc1ccnc(Nc2ccc(C#N)cc2)n1 | 1 nM | 2060 |  | > 2080 nM | 14 nM | 2 nM | 1.5 nM | 11 nM | 10 nM | 1.3 nM | ≥ 110 nM | 0.84 nM |
| Cc1cc(-c2cccc(C#N)c2)cc(C)c1Nc1ccnc(Nc2ccc(C#N)cc2)n1 | 1.5 nM | 601 | 920 nM | > 920 nM | 11 nM | 8.1 nM | 11 nM | > 920 nM | 270 nM | 17 nM | > 920 nM | 2.3 nM |
| Cc1cc(-c2ccc(F)cc2)cc(C)c1Nc1ccnc(Nc2ccc(C#N)cc2)n1 | 1.4 nM | 2950 | 4170 nM | > 3990 nM | 17 nM | 8.1 nM | 8.3 nM | 160 nM | 190 nM | 10 nM | 320 nM | 2.3 nM |
